Literature values, collected in US8530651B2, “Process for the preparation of anagrelide and analogues” (Shire LLC, priority 2008, dated 2013).
Like-named read-outs stand apart in the source and are kept apart here.

What was measured:
[1] = humans; radiolabeled base
[2] = monkeys; radiolabeled base
[3] = solid

- absorption into blood plasma [1]: complete absorption
- absorption into blood plasma [2]: complete absorption
- aqueous solubility [3]: low aqueous solubility
SMILES: O=C1CN2Cc3c(ccc(Cl)c3Cl)N=C2N1 [anagrelide base, 6,7-dichloro-1,5-dihydroimidazo[2,1-b]quinazolin-2 (3H)-one]
